Source: PubChem BioAssay AID1902 (Broad Institute, 2009)
Calls of active or inactive are those of the source.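 The calls were made as follows: active = EC50 no more than a set limit of log units above the highest dose; inactive = the rest.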

target: S. pyogenes SKKanGAS, kanamycin survival, BacTiterGlo, 6 h; assay: SKKanGAS survival reduction under kanamycin, dose response, streptokinase promoter inhibitor project, SKKanGAS strain, luminescence, dose confirmation (AID 1902);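 also: lower survival reflects blocked streptokinase promoter driving kanamycin resistance gene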

Compound	EC50
COc1ccc(S(=O)(=O)N2CCN=C2SCc2cccc(C)c2)cc1	> 15000 nM (inactive)
Cc1c(C(=O)Nc2nc3ccccc3[nH]2)oc2c(Cl)cccc12	727 nM
O=c1c2c(nc3c(-c4ccc(Cl)cc4)c[nH]n13)CCC2	3380 nM
COc1ccc(-c2nc(-c3ccc4c(c3)OCO4)[nH]c2-c2ccc(OC)cc2)cc1	4720 nM
COc1ccc(CCCC(=O)N/N=C/c2cccc(OC)c2O)cc1C	1660 nM
Cc1ccc(NC2=NCC(Cc3ccc(Br)cc3)S2)cc1 (stereo not drawn)	557 nM
Cn1cccc1CC(=O)NNC(=S)NC(=O)c1ccccc1Br	1640 nM
COc1cccc(NC(=O)NCCCCc2ccccc2)c1	> 15000 nM (inactive)
Oc1ccc(COCc2ccccc2)c2cccnc12	1850 nM
c1ccc(Nc2nc(N3CCCCC3)nc(N3CCCCC3)n2)cc1	8250 nM
CC(C)n1nc(C(=O)Nc2nnc(SCc3c(Cl)cccc3Cl)s2)c2ccccc2c1=O	1680 nM
COc1cc2ccccc2cc1C(=O)NC(=S)Nc1ccc(C(=O)O)cc1	4440 nM
Cc1ccc(S(=O)(=O)Nc2ccc(Cl)cc2)cc1NC(=O)c1cc2c(s1)CCCC2	6630 nM
Oc1cccc2ccc(/C=C/c3ccc(Br)s3)nc12	1380 nM
C=CCn1c(=O)c(C(=O)NCc2ccccc2)c(O)c2ccccc21	3320 nM
CCCCCCn1c(=O)c(C(=O)Nc2ncccc2C)c(O)c2ccccc21	507 nM
CCOc1cc(/C=C(\C#N)c2nc(-c3cccs3)c(NC(C)=O)s2)ccc1O	385 nM
CCc1ccc(S(=O)(=O)/N=C2\C=C(Nc3cccc(C(=O)O)c3)C(=O)c3ccccc32)cc1	1710 nM
N#Cc1ccccc1CN1C(=O)S/C(=C/c2cccn2-c2ccc(C(=O)O)cc2)C1=O	7030 nM
CCOC(=O)c1c(NC(=O)COC(=O)c2ccc(C)s2)sc2c1CC(C)(C)NC2(C)C	3700 nM
Cc1cc(/C=C2\SC(=S)NC2=O)c(C)n1-c1cccc(O)c1	3060 nM
COc1cc(Cl)cc(/C=C/c2ccc3cccc(O)c3n2)c1OC	951 nM

Compound	EC50
O=[N+]([O-])c1ccc(/C=N/Nc2nc(-c3ccccc3)c3cc(Br)ccc3n2)o1	466 nM
CNc1ccc2oc(C[C@H]3O[C@@]4(CC[C@H]3C)O[C@H]([C@H](C)C(=O)c3ccc[nH]3)[C@H](C)C[C@H]4C)nc2c1C(=O)O	< 60 nM
O=c1[nH]c2ccc(Cl)cc2c(-c2ccccc2)c1SC(=S)N1CCOCC1	697 nM
O=C(Nc1ccc(F)cc1)c1nc2c(nnn2Cc2cccc3ccccc23)c(=O)[nH]1	2440 nM
O=C(NC(=S)N1CCN(C(c2ccccc2)c2ccccc2)CC1)c1ccc(S(=O)(=O)N2CCOCC2)cc1	2560 nM
O=C(Nc1nnc(-c2ccccc2)o1)c1ccc(Cl)cc1	254 nM
CC(C)c1c(C(=O)N/N=C/c2cccc(OCc3ccccc3)c2)nnn1-c1nonc1N	9400 nM
CCCCC(CC)CN1C(=O)/C(=C/c2ccncc2)SC1=S (stereo not drawn)	2840 nM
O=C(Cc1ccccc1)N/N=C/c1ccccn1	> 15000 nM (inactive)
Cc1nc(NS(=O)(=O)c2ccc(Cl)s2)c2c3c(sc2n1)CCCC3	3980 nM
CO[C@@]1(NC(=O)Cc2cccs2)C(=O)N2C(C(=O)O)=C(COC(N)=O)CS[C@@H]21	3330 nM
CCc1cc(-c2n[nH]c(C)c2Oc2ccc(C(C)C)cc2)c(O)cc1O	1850 nM
Cc1ccc(C(=O)OC2OC(=O)C(Cl)=C2N2CCOCC2)cc1 (stereo not drawn)	884 nM
CCOC(=O)c1sc(NC(=O)CNCc2ccccn2)c(C(=O)OCC)c1C	< 60 nM
CC(C)Cn1c(=O)c(C(=O)N/N=C/c2cccc(F)c2)c(O)c2ccccc21	1830 nM
Cc1cc(=O)c(C(=O)O)cn1Nc1ccc(Cl)cc1	2360 nM
COc1cccc(/C=N/Nc2cc(N3CCOCC3)ncn2)c1O	7640 nM
COc1ccc(C2CC(=O)c3cnc(N4CCN(Cc5ccccc5)CC4)nc3C2)cc1 (stereo not drawn)	13700 nM
CCc1cccc2c(C(=O)COC(=O)/C=C/c3ccc(O)c(OC)c3)c[nH]c12	7640 nM
Oc1[nH]c2ccc(Br)cc2c1N=NC(=S)Nc1ccc(F)cc1	115 nM
CCC(C(=O)NCCCN1CCCC1=O)n1c2ccccc2c2nc(=O)cc(C)n21 (stereo not drawn)	> 15000 nM (inactive)
